Publication PMC3454376, “Salidroside Improves Behavioral and Histological Outcomes and Reduces Apoptosis via PI3K/Akt Signaling after Experimental Traumatic Brain Injury” (PLoS ONE, 2012)

Experiments:
cytosolic CytoC = experiment: Western blot, cytosolic fraction of injured cortex; format: in vivo, mice; settings: 20 mg/kg ip 10 min after CCI
Experimental: (§1) Three sets of experiments were performed. The first set was to investigate the protective effects of salidroside. All animals were randomized into 1 of 3 groups (sham injury, CCI + vehicle, CCI + SALD 20). Surgery/injury, behavioral testing, and tissue analyses were performed by different individuals. Behavioral testing and tissue analyses were performed by individuals blinded to the treatment group. Salidroside (Cayman Chemical, Ann Arbor, MI, USA) dissolved in normal saline (0.25 mL) or a corresponding volume of vehicle (saline) was administered intraperitoneally 10 min following injury. Testing after injury was completed as follows: 1) behavioral testing at days 1, 4, 7, 14, 21, and 28 (n = 8–10 mice/group); 2) cresyl violet staining at day 28 (n = 9 mice/group); 3) histology, determination of brain water content, and western blot analysis at day 1 or 3 (n = 5–6 mice/group). To determine the optimal dose of salidroside, a pilot study was performed using 2 different doses (20 and 50 mg/kg) administered 10 min after injury, and neurological deficits and tissue damage were evaluated as the main outcomes. […] The second set of experiment was to assess the effect of the inhibition of PI3K/Akt with the specific PI3K inhibitor, LY294002 (Cell Signaling Technology, Danvers, MA, USA), on salidroside effects. Animals were randomized into 4 groups. Mice received either: 1) icv pretreatment of LY294002 followed by SALD 20 after CCI (S20Y group); or 2) icv pretreatment of saline (vehicle control) followed by SALD 20 after CCI (S20V group). 3) Mice were infused icv with saline and were subjected to sham injury. 4) Mice were infused icv with LY294002 and were subjected to sham injury. Testing after injury was completed as follows: 1) cresyl violet staining at day 28 (n = 6 mice/group); 2) western blot analysis at day 1 (n = 6 mice/group). The third set of experiment was performed to examine the neuroprotective time window afforded by salidroside. Mice received intraperitoneal SALD 20 or vehicle (saline) at 3 or 6 h following CCI and were sacrificed 1 day later for FJB staining and western blot analysis (n = 6 mice/group). Brains of injured or sham animals were collected 1 day and 3 days post CCI or sham surgery, and a 4 mm coronal section from the injured area over the parietal cortex and ipsilateral hippocampus were collected. […] Protein concentration was determined by Bradford reagent spectrophotometrically at A595. […] The relative intensity of protein signals was normalized to the corresponding β-actin intensity and was quantified by densitometric analysis with the use of Image J software. […]

cytosolic Smac/DIABLO = experiment: Western blot, cytosolic fraction of injured cortex; format: in vivo, mice; settings: 20 mg/kg ip 10 min after CCI, P<0.05
Experimental: as §1

## OC[C@H]1O[C@@H](OCCc2ccc(O)cc2)[C@H](O)[C@@H](O)[C@@H]1O [SALD, salidroside]
Cytosolic CytoC; day 1, P<0.01
  cytosolic CytoC level compared to vehicle-treated injured brains: 60.6%
Cytosolic CytoC; day 3, P<0.05
  cytosolic CytoC level compared to vehicle-treated injured brains: 54.7%
Cytosolic Smac/DIABLO; day 1
  cytosolic Smac/DIABLO level compared to vehicle-treated injured brains: 45.1%
Cytosolic Smac/DIABLO; day 3
  cytosolic Smac/DIABLO level compared to vehicle-treated injured brains: 58.1%
